Assay results as given in ChEMBL document CHEMBL1275493, “Anti-human immunodeficiency virus type 1 activities of antimicrobial peptides derived from human and bovine cathelicidins” (Antimicrob Agents Chemother, 2008).
Peptide text beside a SMILES is read from it.

Experiments:
CEM-SS = test: Cytotoxicity against Human immunodeficiency virus 1 3B infected human CEM-SS cells; type: functional; conditions: read-out: TC50 (the source's name)
[1] = system: Human immunodeficiency virus 1; test: Antiviral activity against Human immunodeficiency virus 1 3B infected in CEM-SS cells; type: functional, organism-based
[2] = Therapeutic index, TC50 for Human immunodeficiency virus 1 3B infected human CEM-SS cells to EC50 for immunodeficiency virus 1 3B; type: cell-based; conditions: CEM-SS cells infected with HIV-1 3B, read-out: TI

Row | Compound | EC50 [1] | CC50 (CEM-SS) | selectivity ratio [2]
1 | CC[C@H](C)[C@H](NC(=O)CN)C(=O)N[C@@H](CCCCN)C(=O)N[C@@H](CCC(N)=O)C(=O)N[C@@H](Cc1ccccc1)C(=O)N[C@@H](CCCCN)C(=O)N[C@@H](CCCNC(=N)N)C(=O)N[C@H](C(=O)N[C@H](C(=O)N[C@@H](CCC(N)=O)C(=O)N[C@@H](CCCNC(=N)N)C(=O)N[C@H](C(=O)N[C@@H](CCCCN)C(=O)N[C@@H](CC(=O)O)C(=O)N[C@@H](Cc1ccccc1)C(=O)N[C@@H](CC(C)C)C(=O)N[C@@H](CCCNC(=N)N)C(=O)N[C@@H](CC(N)=O)C(=O)N[C@@H](CC(C)C)C(=O)N[C@H](C(=O)O)C(C)C)[C@@H](C)CC)C(C)C)[C@@H](C)CC (H-GIKQFKRIVQRIKDFLRNLV-OH) | – | 13.7 µM | –
2 | CC[C@H](C)[C@H](NC(=O)[C@H](CCCNC(=N)N)NC(=O)[C@H](CCCCN)NC(=O)[C@H](Cc1ccccc1)NC(=O)CN)C(=O)N[C@H](C(=O)N[C@@H](CCC(N)=O)C(=O)N[C@@H](CCCNC(=N)N)C(=O)N[C@@H](C(=O)N[C@@H](CCCCN)C(=O)N[C@@H](CC(=O)O)C(=O)N[C@@H](Cc1ccccc1)C(=O)N[C@@H](CC(C)C)C(=O)N[C@@H](CCCNC(=N)N)C(=O)N[C@@H](CC(N)=O)C(=O)N[C@@H](CC(C)C)C(=O)N[C@H](C(=O)O)C(C)C)[C@@H](C)CC)C(C)C | > 47.5 µM | 22.7 µM | –
3 | CC[C@H](C)[C@H](NC(=O)CN)C(=O)N[C@@H](CCCCN)C(=O)N[C@@H](CCC(=O)O)C(=O)N[C@@H](Cc1c[nH]c2ccccc12)C(=O)N[C@@H](CCCCN)C(=O)N[C@@H](CCCNC(=N)N)C(=O)N[C@H](C(=O)N[C@H](C(=O)N[C@@H](CCC(N)=O)C(=O)N[C@@H](CCCNC(=N)N)C(=O)N[C@H](C(=O)N[C@@H](CCCCN)C(=O)N[C@@H](CC(=O)O)C(=O)N[C@@H](Cc1ccccc1)C(=O)N[C@@H](CC(C)C)C(=O)N[C@@H](CCCNC(=N)N)C(=O)N[C@@H](CC(N)=O)C(=O)N[C@@H](CC(C)C)C(=O)N[C@H](C(=O)O)C(C)C)[C@@H](C)CC)C(C)C)[C@@H](C)CC (H-GIKEWKRIVQRIKDFLRNLV-OH) [listing 2 of 2 here] | – | 23.6 µM | –
4 | CC[C@H](C)[C@H](NC(=O)[C@H](CCCCN)NC(=O)[C@H](CCCCN)NC(=O)[C@H](Cc1ccccc1)NC(=O)[C@H](CC(C)C)NC(=O)[C@H](CCCCN)NC(=O)[C@H](CCCCN)NC(=O)[C@H](CC(C)C)NC(=O)[C@H](CCCCN)NC(=O)[C@H](CCCCN)NC(=O)[C@H](CCCNC(=N)N)NC(=O)[C@@H](NC(=O)[C@H](CCCNC(=N)N)NC(=O)[C@H](CCCCN)NC(=O)[C@H](Cc1ccccc1)NC(=O)[C@H](CCCNC(=N)N)NC(=O)CN)[C@@H](C)CC)C(=O)N[C@@H](CO)C(=O)O (H-GRFKRIRKKLKKLFKKIS-OH) [listing 2 of 2 here] | – | 2.79 µM | –
5 | CC[C@H](C)[C@H](NC(=O)[C@H](CCCCN)NC(=O)[C@H](CC(=O)O)NC(=O)[C@H](Cc1ccccc1)NC(=O)[C@H](CC(C)C)NC(=O)[C@@H](N)CCCNC(=N)N)C(=O)N[C@@H](CCCNC(=N)N)C(=O)N[C@@H](CCC(N)=O)C(=O)N[C@H](C(=O)N[C@H](C(=O)N[C@@H](CCCNC(=N)N)C(=O)N[C@@H](CCCCN)C(=O)N[C@@H](Cc1ccccc1)C(=O)O)[C@@H](C)CC)C(C)C (H-RLFDKIRQVIRKF-OH) | > 58.1 µM | 33.7 µM | –
6 | CC[C@H](C)[C@H](NC(=O)CN)C(=O)N[C@@H](CCCCN)C(=O)N[C@@H](CCC(=O)O)C(=O)N[C@@H](Cc1ccccc1)C(=O)N[C@@H](CCCCN)C(=O)N[C@@H](CCCNC(=N)N)C(=O)N[C@@H](CCC(=O)O)C(=O)N[C@@H](Cc1ccccc1)C(=O)N[C@@H](CCC(N)=O)C(=O)N[C@@H](CCCNC(=N)N)C(=O)N[C@H](C(=O)N[C@@H](CCCCN)C(=O)N[C@@H](CC(=O)O)C(=O)N[C@@H](Cc1ccccc1)C(=O)N[C@@H](CC(C)C)C(=O)N[C@@H](CCCNC(=N)N)C(=O)N[C@@H](CC(N)=O)C(=O)N[C@@H](CC(C)C)C(=O)N[C@H](C(=O)O)C(C)C)[C@@H](C)CC (H-GIKEFKREFQRIKDFLRNLV-OH) [listing 1 of 2 here] | – | 9.9 µM | –
7 | CC[C@H](C)[C@H](NC(=O)[C@H](CCCNC(=N)N)NC(=O)[C@H](CCC(N)=O)NC(=O)[C@@H](NC(=O)[C@@H](NC(=O)[C@H](CCCNC(=N)N)NC(=O)[C@@H](N)CCCCN)[C@@H](C)CC)C(C)C)C(=O)N[C@@H](CCCCN)C(=O)N[C@@H](CC(=O)O)C(=O)N[C@@H](Cc1ccccc1)C(=O)N[C@@H](CC(C)C)C(=O)N[C@@H](CCCNC(=N)N)C(=O)O (H-KRIVQRIKDFLR-OH) | > 63.5 µM | > 63.5 µM | –
8 | CC[C@H](C)[C@H](NC(=O)[C@H](CCCNC(=N)N)NC(=O)[C@H](CCCCN)NC(=O)[C@H](Cc1ccccc1)NC(=O)CN)C(=O)N[C@H](C(=O)N[C@@H](CCC(N)=O)C(=O)N[C@@H](CCCNC(=N)N)C(=O)N[C@@H](C(=O)N[C@@H](CCCCN)C(=O)N[C@@H](CC(=O)O)C(=O)N[C@@H](Cc1ccccc1)C(=O)N[C@H](CC(C)C)C(=O)N[C@@H](CCCNC(=N)N)C(=O)N[C@@H](CC(N)=O)C(=O)N[C@@H](CC(C)C)C(=O)N[C@H](C(=O)O)C(C)C)[C@@H](C)CC)C(C)C | > 47.5 µM | > 47.5 µM | –
9 | CC(C)C[C@H](NC(=O)[C@H](CCCCN)NC(=O)[C@H](CCCCN)NC(=O)[C@H](Cc1ccccc1)NC(=O)[C@H](CCCCN)NC(=O)[C@H](CCCCN)NC(=O)[C@H](CCCNC(=N)N)NC(=O)[C@H](Cc1ccccc1)NC(=O)[C@H](CCCNC(=N)N)NC(=O)[C@H](CCCCN)NC(=O)[C@H](Cc1ccccc1)NC(=O)[C@H](CCCNC(=N)N)NC(=O)CN)C(=O)N[C@@H](Cc1ccccc1)C(=O)N[C@@H](CCCCN)C(=O)O (H-GRFKRFRKKFKKLFK-OH) | > 49.6 µM | > 49.6 µM | –

Now from value to molecule, other results behind:

Row | EC50 [1] | Compound | CC50 (CEM-SS) | selectivity ratio [2]
10 | > 40.5 µM | CC[C@H](C)[C@H](NC(=O)[C@H](CCCNC(=N)N)NC(=O)[C@H](CCC(N)=O)NC(=O)[C@@H](NC(=O)[C@@H](NC(=O)[C@H](CCCNC(=N)N)NC(=O)[C@@H](N)CCCCN)[C@@H](C)CC)C(C)C)C(=O)N[C@@H](CCCCN)C(=O)N[C@@H](CC(=O)O)C(=O)N[C@@H](Cc1ccccc1)C(=O)N[C@@H](CC(C)C)C(=O)N[C@@H](CCCNC(=N)N)C(=O)N[C@@H](CC(N)=O)C(=O)N[C@@H](CC(C)C)C(=O)N[C@H](C(=O)N1CCC[C@H]1C(=O)N[C@@H](CCCNC(=N)N)C(=O)N[C@H](C(=O)N[C@@H](CCC(=O)O)C(=O)N[C@@H](CO)C(=O)O)[C@@H](C)O)C(C)C (H-KRIVQRIKDFLRNLVPRTES-OH) | > 40.5 µM | –
11 | 7.4 µM | CC[C@H](C)[C@H](NC(=O)CN)C(=O)N[C@@H](CCCCN)C(=O)N[C@@H](CCC(=O)O)C(=O)N[C@@H](Cc1c[nH]c2ccccc12)C(=O)N[C@@H](CCCCN)C(=O)N[C@@H](CCCNC(=N)N)C(=O)N[C@H](C(=O)N[C@H](C(=O)N[C@@H](CCC(N)=O)C(=O)N[C@@H](CCCNC(=N)N)C(=O)N[C@H](C(=O)N[C@@H](CCCCN)C(=O)N[C@@H](CC(=O)O)C(=O)N[C@@H](Cc1ccccc1)C(=O)N[C@@H](CC(C)C)C(=O)N[C@@H](CCCNC(=N)N)C(=O)N[C@@H](CC(N)=O)C(=O)N[C@@H](CC(C)C)C(=O)N[C@H](C(=O)O)C(C)C)[C@@H](C)CC)C(C)C)[C@@H](C)CC (H-GIKEWKRIVQRIKDFLRNLV-OH) [listing 1 of 2 here] | – | 3.2
12 | > 44 µM | CC[C@H](C)[C@H](NC(=O)[C@H](CCCCN)NC(=O)[C@H](CCCCN)NC(=O)[C@H](Cc1ccccc1)NC(=O)[C@H](CC(C)C)NC(=O)[C@H](CCCCN)NC(=O)[C@H](CCCCN)NC(=O)[C@H](CC(C)C)NC(=O)[C@H](CCCCN)NC(=O)[C@H](CCCCN)NC(=O)[C@H](CCCNC(=N)N)NC(=O)[C@@H](NC(=O)[C@H](CCCNC(=N)N)NC(=O)[C@H](CCCCN)NC(=O)[C@H](Cc1ccccc1)NC(=O)[C@H](CCCNC(=N)N)NC(=O)CN)[C@@H](C)CC)C(=O)N[C@@H](CO)C(=O)O (H-GRFKRIRKKLKKLFKKIS-OH) [listing 1 of 2 here] | – | –
13 | > 35.4 µM | CC[C@H](C)[C@H](NC(=O)[C@H](CCCCN)NC(=O)[C@H](CCC(=O)O)NC(=O)[C@H](CCCCN)NC(=O)[C@H](CO)NC(=O)[C@H](CCCCN)NC(=O)[C@H](CCCNC(=N)N)NC(=O)[C@H](CC(C)C)NC(=O)[C@H](CC(C)C)NC(=O)[C@H](CC(=O)O)NC(=O)CNC(=O)[C@H](CC(C)C)NC(=O)[C@@H](N)CC(C)C)C(=O)NCC(=O)N[C@@H](CCCCN)C(=O)N[C@@H](CCC(=O)O)C(=O)N[C@@H](Cc1ccccc1)C(=O)N[C@@H](CCCCN)C(=O)N[C@@H](CCCNC(=N)N)C(=O)N[C@H](C(=O)N[C@H](C(=O)N[C@@H](CCC(N)=O)C(=O)N[C@@H](CCCNC(=N)N)C(=O)O)C(C)C)[C@@H](C)CC (H-LLGDLLRKSKEKIGKEFKRIVQR-OH) | > 35.4 µM | –
14 | > 40.6 µM | CC[C@H](C)[C@H](NC(=O)CN)C(=O)N[C@@H](CCCCN)C(=O)N[C@@H](CCC(=O)O)C(=O)N[C@@H](C(=O)N[C@@H](CCCCN)C(=O)N[C@@H](CCCNC(=N)N)C(=O)N[C@H](C(=O)N[C@H](C(=O)N[C@@H](CCC(N)=O)C(=O)N[C@@H](CCCNC(=N)N)C(=O)N[C@H](C(=O)N[C@@H](CCCCN)C(=O)N[C@@H](CC(=O)O)C(=O)N[C@@H](Cc1ccccc1)C(=O)N[C@@H](CC(C)C)C(=O)N[C@@H](CCCNC(=N)N)C(=O)N[C@@H](CC(N)=O)C(=O)N[C@@H](CC(C)C)C(=O)N[C@H](C(=O)O)C(C)C)[C@@H](C)CC)C(C)C)[C@@H](C)CC)c1ccccc1 | 7.3 µM | –
15 | 1.6 µM | CC[C@H](C)[C@H](NC(=O)CN)C(=O)N[C@@H](CCCCN)C(=O)N[C@@H](CCC(=O)O)C(=O)N[C@@H](Cc1ccccc1)C(=O)N[C@@H](CCCCN)C(=O)N[C@@H](CCCNC(=N)N)C(=O)N[C@@H](CCC(=O)O)C(=O)N[C@@H](Cc1ccccc1)C(=O)N[C@@H](CCC(N)=O)C(=O)N[C@@H](CCCNC(=N)N)C(=O)N[C@H](C(=O)N[C@@H](CCCCN)C(=O)N[C@@H](CC(=O)O)C(=O)N[C@@H](Cc1ccccc1)C(=O)N[C@@H](CC(C)C)C(=O)N[C@@H](CCCNC(=N)N)C(=O)N[C@@H](CC(N)=O)C(=O)N[C@@H](CC(C)C)C(=O)N[C@H](C(=O)O)C(C)C)[C@@H](C)CC (H-GIKEFKREFQRIKDFLRNLV-OH) [listing 2 of 2 here] | – | 6.2
